Activity calls are given as the source filed them. The calls are words filed in the database; no cut-off is given here.
Tests used:
[1] = test system: Human immunodeficiency virus; assay: Antiviral activity against HIV infected in human MT4 cells up to 100 uM by multicycle infectivity assay; format: functional, organism-based
[2] = molecular target: Ribonuclease H1 (Homo sapiens) (UniProt O60930); assay: Inhibition of human recombinant ribonuclease H1 in presence of Mg2+
Ribonuclease H1 = molecular target: T1, Ribonuclease H1 (Homo sapiens, UniProt O60930); assay: Inhibition of human RNase H assessed as substrate cleavage by fluorescence assay
T1 sequence (O60930 whole entry): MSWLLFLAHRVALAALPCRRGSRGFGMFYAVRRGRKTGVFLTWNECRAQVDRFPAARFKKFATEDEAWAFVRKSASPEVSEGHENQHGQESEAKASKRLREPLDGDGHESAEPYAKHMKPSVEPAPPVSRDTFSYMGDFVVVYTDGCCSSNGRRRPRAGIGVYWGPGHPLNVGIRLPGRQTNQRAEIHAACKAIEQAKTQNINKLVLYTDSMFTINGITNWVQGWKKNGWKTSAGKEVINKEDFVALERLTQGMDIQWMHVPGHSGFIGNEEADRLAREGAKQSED

Row | IC50 [2] [µM] | IC50 (Ribonuclease H1) [µM] | Structure (SMILES) | Activity [1]
1 |  |  | O=C(O)c1nc(Cc2ccc(Cl)c(Cl)c2)nc(O)c1O | inactive
2 |  |  | O=C(O)c1nc(Cc2c(Br)sc3ccc(Cl)cc23)nc(O)c1O | inactive
3 | > 100 |  | O=C(O)c1nc(-c2ccccc2)nc(O)c1O | inactive
4 |  |  | O=C(O)c1nc(Cc2ccccc2)nc(O)c1O | inactive
5 |  | 5.9 | O=c1[nH]c2ccccc2c(=O)n1O | inactive
6 |  |  | COC(=O)c1nc(Cc2ccccc2)nc(O)c1O | inactive
7 |  |  | COc1ccc(Cc2nc(O)c(O)c(C(=O)O)n2)cc1Br | inactive
8 |  |  | O=C(O)c1nc(CCc2ccccc2)nc(O)c1O | inactive

Source: ChEMBL document CHEMBL1153542, “RNase H active site inhibitors of human immunodeficiency virus type 1 reverse transcriptase: design, biochemical activity, and structural information” (J Med Chem, 2009)
